Experimental findings from PubChem BioAssay AID1259407 (Chemical Carcinogenesis Research Information System (CCRIS), 2018) are described below.

For the data set, the system named is CCRIS mutagenicity, Ames/micronucleus/aberration tests. Description: CCRIS mutagenicity studies.
[1] abbreviates: Test System: AMES SALMONELLA TYPHIMURIUM, Strain/Indicator: TA98, Metabolic Activation: NONE, Method: STANDARD PLATE.
Where [2] appears, read: Test System: AMES SALMONELLA TYPHIMURIUM, Strain/Indicator: TA1535, Metabolic Activation: NONE, Method: PREINCUBATION
The mark [3] stands for this setting: Test System: AMES SALMONELLA TYPHIMURIUM, Strain/Indicator: TA1535, Metabolic Activation: NONE, Method: STANDARD PLATE.
Setting [4] is: Test System: AMES SALMONELLA TYPHIMURIUM, Strain/Indicator: TA1535, Metabolic Activation: RAT, LIVER, S-9, AROCLOR 1254, Method: STANDARD PLATE.
[5] abbreviates: Test System: AMES SALMONELLA TYPHIMURIUM, Strain/Indicator: TA1537, Metabolic Activation: NONE, Method: STANDARD PLATE.
[6] abbreviates: Test System: AMES SALMONELLA TYPHIMURIUM, Strain/Indicator: TA1537, Metabolic Activation: RAT, LIVER, S-9, AROCLOR 1254, Method: STANDARD PLATE.
Where [7] appears, read: Test System: AMES SALMONELLA TYPHIMURIUM, Strain/Indicator: TA1538, Metabolic Activation: NONE, Method: STANDARD PLATE.
Where [8] appears, read: Test System: AMES SALMONELLA TYPHIMURIUM, Strain/Indicator: TA1538, Metabolic Activation: RAT, LIVER, S-9, AROCLOR 1254, Method: STANDARD PLATE.
Setting [9] is: Test System: AMES SALMONELLA TYPHIMURIUM, Strain/Indicator: TA98, Metabolic Activation: HAMSTER, LIVER, S-9, AROCLOR 1254 (10%), Method: PREINCUBATION
Setting [10] is: Test System: AMES SALMONELLA TYPHIMURIUM, Strain/Indicator: TA98, Metabolic Activation: RAT, LIVER, S-9, AROCLOR 1254 (10%), Method: PREINCUBATION
Setting [11] is: Test System: AMES SALMONELLA TYPHIMURIUM, Strain/Indicator: TA100, Metabolic Activation: HAMSTER, LIVER, S-9, AROCLOR 1254 (10%), Method: PREINCUBATION
Setting [12] is: Test System: AMES SALMONELLA TYPHIMURIUM, Strain/Indicator: TA100, Metabolic Activation: NONE, Method: PREINCUBATION
The mark [13] stands for this setting: Test System: AMES SALMONELLA TYPHIMURIUM, Strain/Indicator: TA100, Metabolic Activation: NONE, Method: STANDARD PLATE.
The mark [14] stands for this setting: Test System: AMES SALMONELLA TYPHIMURIUM, Strain/Indicator: TA100, Metabolic Activation: RAT, LIVER, S-9, AROCLOR 1254 (10%), Method: PREINCUBATION
Setting [15] is: Test System: AMES SALMONELLA TYPHIMURIUM, Strain/Indicator: TA100, Metabolic Activation: RAT, LIVER, S-9, AROCLOR 1254, Method: STANDARD PLATE.
[16] abbreviates: Test System: AMES SALMONELLA TYPHIMURIUM, Strain/Indicator: TA1535, Metabolic Activation: HAMSTER, LIVER, S-9, AROCLOR 1254 (10%), Method: PREINCUBATION
The mark [17] stands for this setting: Test System: AMES SALMONELLA TYPHIMURIUM, Strain/Indicator: TA1535, Metabolic Activation: RAT, LIVER, S-9, AROCLOR 1254 (10%), Method: PREINCUBATION

Activity calls are given as the source filed them. The rule behind the calls is not given here.

Take `C[n+]1c2ccccc2nc2ccccc21`: the mutagenic call under setting [1] is “inactive; negative”; the mutagenic call (Test System: AMES SALMONELLA TYPHIMURIUM, Strain/Indicator: TA102, Metabolic Activation: NONE, Method: PREINCUBATION) was “inactive; negative”; the mutagenic call (Test System: AMES SALMONELLA TYPHIMURIUM, Strain/Indicator: TA102, Metabolic Activation: NONE, Method: STANDARD PLATE) was “inactive; negative”; the mutagenic call under setting [2] was “inactive; negative”; the mutagenic call under setting [3] was “inactive; negative”; the mutagenic call under setting [4] was “inactive; negative”. Further, the mutagenic call is, setting by setting: under setting [5], “active; positive”; under setting [6], “active; positive”; under setting [7], “inactive; negative”; under setting [8], “inactive; negative”; (Test System: AMES SALMONELLA TYPHIMURIUM, Strain/Indicator: TA1975, Metabolic Activation: NONE, Method: PREINCUBATION) “inactive; negative”; (Test System: AMES SALMONELLA TYPHIMURIUM, Strain/Indicator: TA2638, Metabolic Activation: NONE, Method: STANDARD PLATE) “inactive; negative”. Besides, the mutagenic call is “inactive; negative” (Test System: AMES SALMONELLA TYPHIMURIUM, Strain/Indicator: YG3001, Metabolic Activation: NONE, Method: PREINCUBATION); “inactive; negative” (Test System: AMES SALMONELLA TYPHIMURIUM, Strain/Indicator: YG3002, Metabolic Activation: NONE, Method: PREINCUBATION); “inactive; negative” (Test System: AMES SALMONELLA TYPHIMURIUM, Strain/Indicator: YG3003, Metabolic Activation: NONE, Method: PREINCUBATION); “inactive; negative” (Test System: E. COLI, Strain/Indicator: WP2 (PKM101), Metabolic Activation: NONE, Method: STANDARD PLATE); “active; positive” (Test System: E. COLI, Strain/Indicator: WP2 UVRA (PKM101), Metabolic Activation: NONE, Method: STANDARD PLATE).

As for `CCCCC/C=C\C/C=C\CCCCCCCC(=O)O`, the mutagenic call is, setting by setting: under setting [9], “inactive; negative”; (Test System: AMES SALMONELLA TYPHIMURIUM, Strain/Indicator: TA98, Metabolic Activation: HAMSTER, LIVER, S-9, AROCLOR 1254, Method: STANDARD PLATE) “inactive; negative”; (Test System: AMES SALMONELLA TYPHIMURIUM, Strain/Indicator: TA98, Metabolic Activation: NONE, Method: PREINCUBATION) “inactive; negative”; under setting [1], “inactive; negative”; under setting [10], “inactive; negative”; (Test System: AMES SALMONELLA TYPHIMURIUM, Strain/Indicator: TA98, Metabolic Activation: RAT, LIVER, S-9, AROCLOR 1254, Method: STANDARD PLATE) “inactive; negative”. Moreover, the mutagenic call was “inactive; negative” under setting [11]; “inactive; negative” (Test System: AMES SALMONELLA TYPHIMURIUM, Strain/Indicator: TA100, Metabolic Activation: HAMSTER, LIVER, S-9, AROCLOR 1254, Method: STANDARD PLATE); “inactive; negative” under setting [12]; “inactive; negative” under setting [13]; “inactive; negative” under setting [14]; “inactive; negative” under setting [15]. For the same compound, the mutagenic call was “inactive; negative” under setting [16]; “inactive; negative” (Test System: AMES SALMONELLA TYPHIMURIUM, Strain/Indicator: TA1535, Metabolic Activation: HAMSTER, LIVER, S-9, AROCLOR 1254, Method: STANDARD PLATE); “inactive; negative” under setting [2]; “inactive; negative” under setting [3]; “inactive; negative” under setting [17]; “inactive; negative” under setting [4]. Besides, the mutagenic call reads like this: (Test System: AMES SALMONELLA TYPHIMURIUM, Strain/Indicator: TA1537, Metabolic Activation: HAMSTER, LIVER, S-9, AROCLOR 1254 (10%), Method: PREINCUBATION) “inactive; negative”; (Test System: AMES SALMONELLA TYPHIMURIUM, Strain/Indicator: TA1537, Metabolic Activation: HAMSTER, LIVER, S-9, AROCLOR 1254, Method: STANDARD PLATE) “inactive; negative”; (Test System: AMES SALMONELLA TYPHIMURIUM, Strain/Indicator: TA1537, Metabolic Activation: NONE, Method: PREINCUBATION) “inactive; negative”; under setting [5], “inactive; negative”; (Test System: AMES SALMONELLA TYPHIMURIUM, Strain/Indicator: TA1537, Metabolic Activation: RAT, LIVER, S-9, AROCLOR 1254 (10%), Method: PREINCUBATION) “inactive; negative”; under setting [6], “inactive; negative”. In addition, the mutagenic call (Test System: AMES SALMONELLA TYPHIMURIUM, Strain/Indicator: TA1538, Metabolic Activation: HAMSTER, LIVER, S-9, AROCLOR 1254, Method: STANDARD PLATE) is “inactive; negative”; the mutagenic call under setting [7] is “inactive; negative”; the mutagenic call under setting [8] is “inactive; negative”; the mutagenic call (Test System: MOUSE LYMPHOMA, Strain/Indicator: L5178Y (TK+/TK-), Metabolic Activation: NONE, Method: SUSPENSION/PLATE) is “inactive; negative. reevaluation of results: negative”; the mutagenic call (Test System: MOUSE LYMPHOMA, Strain/Indicator: L5178Y (TK+/TK-), Metabolic Activation: RAT, LIVER, S-9, AROCLOR 1254, Method: SUSPENSION/PLATE) was “inactive; negative. reevaluation of results: negative”.

As to `OCC(Cl)CCl` (stereo not drawn), the mutagenic call runs as follows: (Test System: AMES SALMONELLA TYPHIMURIUM, Strain/Indicator: TA97, Metabolic Activation: HAMSTER, LIVER, S-9, AROCLOR 1254 (10%), Method: PREINCUBATION) “active; positive”; (Test System: AMES SALMONELLA TYPHIMURIUM, Strain/Indicator: TA97, Metabolic Activation: NONE, Method: PREINCUBATION) “active; positive”; (Test System: AMES SALMONELLA TYPHIMURIUM, Strain/Indicator: TA97, Metabolic Activation: RAT, LIVER, S-9, AROCLOR 1254 (10%), Method: PREINCUBATION) “active; positive”; under setting [9], “active; positive”; under setting [10], “active; positive”; under setting [11], “active; positive”. Moreover, the mutagenic call is “active; positive” under setting [12]; “active; positive” under setting [13]; “active; positive” under setting [14]; “active; positive” under setting [15]; “active; positive” (Test System: AMES SALMONELLA TYPHIMURIUM, Strain/Indicator: TA100, Metabolic Activation: RAT, LIVER, S-9, KANECHLOR 500, Method: PREINCUBATION); “active; positive” under setting [16]. Further, the mutagenic call was “active; positive” under setting [2], “active; positive” under setting [3], “active; positive” under setting [17] and “active; positive” under setting [4].

In the case of `CCC(O)CN(CC(O)CC)N=O` (stereo not drawn), the mutagenic call (Test System: CHINESE HAMSTER V-79, Strain/Indicator: V-79/OUABAIN, Metabolic Activation: HAMSTER, HEPATOCYTES, Method: CELL-MEDIATED) was “inactive; negative”.
